From the NIST ThermoML archive (doi:10.1016/j.fluid.2005.09.011)
Numbers after ± are expanded uncertainties.

Settings: Liquid; for mass density: 101.33 kPa

FC(F)C(F)(F)C(F)(F)C(F)(F)C(F)(F)C(F)(F)C(F)(F)C(F)F [1,1,2,2,3,3,4,4,5,5,6,6,7,7,8,8-hexadecafluorooctane]
Settings | mass density [kg/m3] | vapor or sublimation pressure [kPa]
288.15 K | 1775.3 ± 1.9 | –
289.31 K | – | 0.55 ± 0.06
293.15 K | 1764.4 ± 1.9 | –
293.26 K | – | 0.75 ± 0.07
298.15 K | 1753.4 ± 1.9 | –
298.2 K | – | 0.99 ± 0.09
303.15 K | 1742.4 ± 1.9 | –
303.18 K | – | 1.43 ± 0.1
308.15 K | 1731.3 ± 1.8 | –
308.17 K | – | 1.92 ± 0.11
313.15 K | 1720.2 ± 1.8 | –
313.18 K | – | 2.49 ± 0.12
318.14 K | – | 3.12 ± 0.13
323.15 K | – | 4.07 ± 0.15
328.15 K | – | 5.26 ± 0.17
333.14 K | – | 6.64 ± 0.19
